Where only a bound is given, the exact number is not on record here.

For series [1] the following is noted: humans (TIHKAL; Erowid); cited from earlier work.
The test system of series [2] is 5-HT2A receptor. Nature of the series: Head-twitch response (HTR) and behavioral observation in mice. In kind it is in vivo, adult, male C57BL/6J mice. The conditions noted are these: 10 mg/kg PO, mice. On the procedure:
The HTR assay was performed in adult, male C57BL/6J mice, procured from the Jackson Laboratory (Bar Harbor, Maine), as previously described (Canal, C. E., and Morgan, D., 2012, Head-twitch response in rodents induced by the hallucinogen 2,5-dimethoxy-4-iodoamphetamine: a comprehensive history, a re-evaluation of mechanisms, and its utility as a model, Drug Test Anal 4, 556-576; Saraf, T. S., Felsing, D. E., Armstrong, J. L., Booth, R. G., and Canal, C. E., 2021, Evaluation of lorcaserin as an anticonvulsant in juvenile Fmr1 knockout mice, Epilepsy Res 175, 106677). Mice were housed in standard laboratory cages with ad libitum access to food and water, and were acclimated to the vivarium for at least one week prior to testing in a procedure room. On the day of testing, mice were acclimated to the procedure room in their home cages for ≥60 min before administration of test compounds. Test articles were administered at 10 mg/kg by oral gavage and mice were placed immediately thereafter in a clear, polycarbonate box (46×20×20 cm), and HTRs were counted for 30 consecutive minutes, using hand-held tally counters, by two trained observers who were blind to treatment.

The conditions of series [3]: in vivo, cited from earlier work.
For series [4], the target named is T1, 5-HT2A receptor (Homo sapiens, UniProt P28223).
T1 construct: expressed in transfected cells
T1 sequence (P28223 whole entry): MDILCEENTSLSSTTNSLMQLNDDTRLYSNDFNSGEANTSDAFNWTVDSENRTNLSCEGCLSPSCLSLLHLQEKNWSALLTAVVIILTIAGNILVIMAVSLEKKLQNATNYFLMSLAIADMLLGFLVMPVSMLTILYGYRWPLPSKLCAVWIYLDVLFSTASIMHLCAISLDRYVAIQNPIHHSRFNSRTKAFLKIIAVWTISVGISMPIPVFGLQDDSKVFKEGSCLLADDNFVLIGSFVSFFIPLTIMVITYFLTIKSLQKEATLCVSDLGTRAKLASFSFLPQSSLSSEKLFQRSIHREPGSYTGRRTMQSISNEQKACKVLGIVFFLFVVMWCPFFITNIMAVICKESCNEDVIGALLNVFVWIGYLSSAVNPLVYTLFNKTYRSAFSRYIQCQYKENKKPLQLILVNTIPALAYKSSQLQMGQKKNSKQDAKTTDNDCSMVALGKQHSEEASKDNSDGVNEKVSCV
The experiment in a line: Competition binding assay with [125I]DOI, 5-HT2A receptor. The conditions noted are these: [125I]DOI radioligand; read-out: 5-HT2A affinity. On the procedure: (§1) Binding affinity (Ki) and functional potency and efficacy (EC50 and EMAX) values of the compounds were measured.

In series [5] the target is T1, 5-HT2A receptor. Nature of the series: 5-HT2A receptor functional screening assay (efficacy relative to maximal 5-HT response). In kind it is cell-based. As to conditions: for activation at 0.5 µM: 500 nM. On the procedure: (§2) 5-HT2 receptor-mediated Gq stimulation [phosphoinositide hydrolysis leading to the production of inositol phosphate 1 (IP1)]-canonical signaling pathways-were measured as previously described (Canal, C. E., Cordova-Sintjago, T., Liu, Y., Kim, M. S., Morgan, D., and Booth, R. G., 2013, Molecular pharmacology and ligand docking studies reveal a single amino acid difference between mouse and human serotonin 5-HT2A receptors that impacts behavioral translation of novel 4-phenyl-2-dimethylaminotetralin ligands, J Pharmacol Exp Ther 347, 705-716; Canal, C. E., Morgan, D., Felsing, D., Kondabolu, K., Rowland, N. E., Robertson, K. L., Sakhuja, R., and Booth, R. G., 2014, A Novel Aminotetralin-Type Serotonin (5-HT)(2C) Receptor —Specific Agonist and 5-HT2A Competitive Antagonist/5-HT2B Inverse Agonist with Preclinical Efficacy for Psychoses, J Pharm Exp Ther 349, 533), for example, with a homogeneous time-resolved fluorescence (HTRF) capable microplate reader (e.g., Mithras LB 940, Berthold) using commercially-available kits employing Fluorescence Resonance Energy Transfer (FRET) technology (e.g., IP-One HTRF (Cisbio) kits). Briefly, CHO-K1 or HEK293 cells expressing a single serotonergic 5-HT2 receptor subtype were incubated with test compounds and 5-HT or DOI (positive control) in stimulation buffer containing LiCl. After equilibration, the reaction was terminated with the donor and acceptor fluorescent conjugates in lysis buffer, and FRET was measured with a microplate reader (Berthold Mithras). Data were fit to non-linear curves to calculate potencies (e.g., EC50) and efficacies (e.g., EMAX), relative to positive controls (e.g., serotonin).

Series [6] addresses T2, human serotonin 5-HT2A receptor (Homo sapiens, UniProt P28223).
T2 construct: host or cells: HEK293 (ATCC CRL-1573)
The experiment in a line: Radioligand ([3H]LSD) competition binding, 5-HT2A receptor. The conditions noted are these: in words; up to 10 μM for partial competition. The procedure:
as §1
Radioligand competition binding was performed as previously described (Saraf, T. S., Felsing, D. E., Armstrong, J. L., Booth, R. G., and Canal, C. E., 2021, Evaluation of lorcaserin as an anticonvulsant in juvenile Fmr1 knockout mice, Epilepsy Res 175, 106677), with minor modifications, using human cloned 5-HT2A receptors. Plasmids encoding human serotonin 5-HT2A receptor cDNA were procured from the cDNA Resource Center. Human embryonic kidney cells (HEK293, ATCC CRL-1573) were grown in a cell incubator in 100 mm dishes with antibiotic-free Dulbecco's modified Eagle's medium containing 10% fetal bovine serum. Cells were transfected at ~85% confluency with 5-15 μg cDNA using TransIT-2020 reagent (Mirus Bio, Madison, Wisconsin). After approximately 48 hours, cell membrane was collected via centrifugation. For all experiments, serotonin (5-HT) hydrochloride was used as a positive control, and mianserin hydrochloride (10 μM) was used to define non-specific binding. Each cell membrane homogenate expressing 5-HT2A receptors was incubated at room temperature in 96-well plates with [^3H] […] Following equilibration, each sample was filtered rapidly under vacuum through fiberglass filters presoaked in a buffer and washed by vacuum several times with an ice-cold buffer. Filters were soaked with scintillation fluid and counts per minute were detected using photodetectors (Microbeta Scintillation Counter). […] Data shown are the results from all experiments combined. As is known, G protein-coupled receptors, including the 5-HT2A receptor, can exist in multiple conformations, and ligands, typically agonist ligands, have unique affinities for these conformations of the receptor (Kenakin, T. Theoretical Aspects of GPCR-Ligand Complex Pharmacology, Chem. Rev. 2017, 117, 1, 4-20). […] However, for simplicity reasons, affinity of these compounds are reported herein as fitted to the single-site model. The data point for −10 samples is total specific binding (no compound present), and −4 was interpolated to complete the binding curves to 0 specific binding.

Series [7] in a line: in vitro. In kind it is in vitro ADME, Male Sprague-Dawley rat. As to conditions: rat liver microsomes 0.5 mg/mL, 1 mM NADPH, test compound 1 μM, pH 7.4, 37° C.; read-out: RLM, t1/2. On the procedure: Male Sprague-Dawley rat liver microsomes were purchased from XenoTech. The reaction mixture, minus NADPH, was prepared as described below. The test compound was added into the reaction mixture at a final concentration of 1 μM. The control compound, testosterone, was run simultaneously with the test compound in a separate reaction. The reaction mixture (without cofactor) was equilibrated in a shaking water bath at 37° C. for 5 minutes. The reaction was initiated by the addition of the cofactor, and the mixture was incubated in a shaking water bath at 37° C. Aliquots (150 μL) were withdrawn at 0, 5, 10, 20, 30, 60, and 120 minutes. Test compound and testosterone samples were immediately combined with 150 μL of ice-cold acetonitrile (ACN) containing 0.1% formic acid and internal standard to terminate the reaction. The samples were then mixed and centrifuged to precipitate proteins. All samples were assayed by LC-MS/MS using electrospray ionization. The peak area response ratio (PARR) of analyte to internal standard at each time point was compared to the PARR at time 0 to determine the percent remaining at each time point. Half-lives were calculated using GraphPad software, fitting to a single-phase exponential decay equation.
(Liver microsomes are vesicles of endoplasmic reticulum, rich in cytochrome P450 enzymes.)

Series [8] addresses T1, 5-HT2A receptor. The experiment in a line: Dose-response 5-HT2A functional assay (IP1 formation). In kind it is cell-based. As to conditions: for 5-HT2A functional activity (in words): dose-response. On the procedure:
FIG. 27 is a graph showing the dose-response 5-HT2A functional assay results as a percent of control agonist response for compound II-2; tested in duplicate at the indicated concentrations and the EC50 values were determined by non-linear regression analysis of the concentration-response curves generated with mean replicate values using Hill equation curve fitting;
FIG. 28 is a graph showing the dose-response 5-HT2A functional assay results as a percent of control agonist response for compounds III-2 and IV-21; tested in duplicate at the indicated concentrations and the EC50 values were determined by non-linear regression analysis of the concentration-response curves generated with mean replicate values using Hill equation curve fitting; and
as §2
(§3) The results from tests of 5-HT2A functional activities of this series of compounds were also unexpected in the context of the unusual results observed from competition binding assays. […] Complete dose-response 5-HT2A and 5HT2B functional assays (measuring IP1 formation) were conducted for III-2 and IV-21 by a second, independent laboratory.

Series [9] deals with 5-HT2B receptor (Homo sapiens, UniProt P41595). The experiment in a line: Dose-response 5-HT2B functional assay (IP1 formation). In kind it is cell-based. As to conditions: for EC50 / 5-HT2B functional activity (in words): IP1 formation; for 5-HT2B functional activity (in words): dose-response; for Emax: percent of control agonist response. On the procedure:
FIG. 29 is a graph showing the dose-response 5-HT2B functional assay results as a percent of control agonist response for compounds III-2 and IV-21; tested in duplicate at the indicated concentrations and the EC50 values were determined by non-linear regression analysis of the concentration-response curves generated with mean replicate values using Hill equation curve fitting.
as §2, §3

5-HT2B receptor, sequence (P41595 whole entry): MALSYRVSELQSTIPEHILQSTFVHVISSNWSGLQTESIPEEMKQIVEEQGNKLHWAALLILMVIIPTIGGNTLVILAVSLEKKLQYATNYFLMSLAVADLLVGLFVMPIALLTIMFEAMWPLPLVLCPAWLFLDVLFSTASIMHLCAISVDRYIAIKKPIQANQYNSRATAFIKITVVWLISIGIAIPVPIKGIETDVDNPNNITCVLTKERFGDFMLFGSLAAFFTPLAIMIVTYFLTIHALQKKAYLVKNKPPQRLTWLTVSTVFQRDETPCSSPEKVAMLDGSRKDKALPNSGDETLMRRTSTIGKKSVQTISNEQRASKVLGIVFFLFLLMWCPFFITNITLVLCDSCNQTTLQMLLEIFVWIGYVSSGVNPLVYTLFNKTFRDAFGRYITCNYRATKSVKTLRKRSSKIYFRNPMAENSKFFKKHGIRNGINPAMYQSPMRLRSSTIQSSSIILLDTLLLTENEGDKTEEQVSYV
T2 sequence (P28223 whole entry): as the sequence (P28223 whole entry) above

With `CCN(CC)CCc1c[nH]c2ccccc12` [DET, N,N-diethyltryptamine, reference compound], the “oral activity in humans” value in series [1] is reported as “active orally in humans”. In series [2], the “elicitation of HTR (in words)” value is “inactive at eliciting the HTR”; the qualitative behavioral changes result is “accelerated breathing, hyperlocomotion, hiccup responses, and chewing movements of mouth”.

Turning to `CN(C)CCc1c[nH]c2ccccc12` [DMT, N,N-dimethyltryptamine], the “oral activity / oral bioavailability” value in series [3] (po) is on record as “not orally active”. The duration of action in series [3] is 5 to 15 min.

On to `CN(CCc1c[nH]c2ccccc12)[S+]([O-])C(F)(F)F` (stereo not drawn) [II-15, N-(2-(1H-indol-3-yl)ethyl)-1,1,1-trifluoro-N-methylmethanesulfinamide], for which the Ki in series [4] was > 3000 nM. In addition, in series [5], the activation at 0.5 µM was -24.1% and the activation at 50 µM was -36.9%. For the same compound, the “5-HT2A functional activity (in words)” value in series [5] (in vitro screening, II-15: both 500 nM and 50 μM) was “inverse agonist efficacy”.

Take `CN(CCc1c[nH]c2ccccc12)CC(F)(F)F` [II-19, N-(2-(1H-indol-3-yl)ethyl)-2,2,2-trifluoro-N-methylethan-1-amine]: the “competition for [3H]LSD-labeled 5-HT2A receptors” value in [6] is “only partial competition”. In series [7], the half-life at 1 µM came to 3.95 min.

Usually EC50 stands for the concentration needed to bring the measured effect to its halfway point. Broadly, the Emax is the greatest response seen or fitted, relative to the assay's reference. As for `Oc1cccc2[nH]cc(CCN(CCC(F)F)CCC(F)F)c12` [III-2, 3-(2-(bis(3,3-difluoropropyl)amino)ethyl)-1H-indol-4-ol], in [8] (IP1 formation), a half-maximal response (EC50) required 383 nM and the “5-HT2A functional activity (in words)” value was “low potency, full agonist”. In addition, in series [9], the EC50 is 96 nM, the “5-HT2B functional activity (in words)” value was “partial agonist” and the Emax is 65%. In addition, in [5], the activation at 0.5 µM is 58.3% and the activation at 50 µM is > 50%.

With `CN(CCc1c[nH]c2cccc(O)c12)CC(F)(F)F` [III-13, 3-(2-(methyl (2,2,2-trifluoroethyl)amino)ethyl)-1H-indol-4-ol], the half-life at 1 µM in [7] is 4.5 min.

As for `CN(C)CCc1c[nH]c2ccc(OC(F)(F)F)cc12` [IV-3, N,N-dimethyl-2-(5-(trifluoromethoxy)-1H-indol-3-yl) ethan-1-amine], the half-life at 1 µM in [7] was 13.1 min.

In the case of `COc1ccc2[nH]cc(CCN(C)CCC(F)(F)F)c2c1` [IV-21, 3,3,3-trifluoro-N-(2-(5-methoxy-1H-indol-3-yl)ethyl)-N-methylpropan-1-amine], in series [8] (IP1 formation), the EC50 is > 3000 nM and the “5-HT2A functional activity (in words)” value was “low potency, EC50>3 μM, agonist”. The EC50 in series [8] (dose-response curve had not plateaued at 3 μM) was > 3000 nM. For the same compound, in [9], the EC50 amounted to 394 nM, the “5-HT2B functional activity (in words)” value was “partial agonist” and the Emax stood at 62%. The activation at 0.5 µM in [5] stood at 29.5%.

Turning to `COc1ccc2[nH]cc(CCN(C)CC(F)(F)F)c2c1` [IV-40, 2,2,2-trifluoro-N-(2-(5-methoxy-1H-indol-3-yl)ethyl)-N-methylethan-1-amine], the half-life at 1 µM in [7] turned out to be 4.55 min.

For the compound `CN(C)CCc1c[nH]c2cccc(OP(=O)(O)O)c12` [Psilocybin, psilocybin], the MAO-mediated metabolism entry in series [3] is on record as “undergo MAO-mediated metabolism in vivo”.

Turning to `CN(C)CCc1c[nH]c2cccc(O)c12` [psilocin], the MAO-mediated metabolism entry in series [3] is “undergo MAO-mediated metabolism in vivo”.
